Assay results from patent US20140357512A1, “HISTONE DEACETYLASE (HDAC) BIOMARKERS IN MULTIPLE MYELOMA” (priority 2013, published 2014).

Tested on: human myeloma cell line MM.1S
Assay: SILAC acetylated-lysine peptide profiling, HDAC inhibitor vs DMSO (light/heavy ratio)
Assay type: cell-based
Description: An embodiment of the invention comprises utilizing the SILAC method in order to quantitate changes in protein expression between two or more populations of cells. The SILAC method is a technique based on mass spectrometry that detects differences in protein abundance among samples using non-radioactive isotopic labeling. The SILAC method is known in the art, and described in detail in Ong et al., “Stable Isotope Labeling by Amino Acids in Cell Culture, SILAC, as a Simple and Accurate Approach to Expression Proteomics”, Molecular & Cellular Proteomics, vol. 1, pp. 376-386 (2002), which is incorporated herein by reference in its entirety.
Briefly, the SILAC method involves growing two populations of cells in cell culture. The first population of cells is grown in growth media containing normal amino acids (“normal media”). The second population of cells is grown in media lacking a standard essential amino acid (such as lysine), but is then supplemented with a non-radioactive, isotopically labeled form of that essential amino acid (such as lysine labeled with ^13C atoms, rather than normal ^12C atoms), which is called “heavy media”. When the two populations of cells are each growing in the medium, they incorporate the amino acids into all of their proteins. The growth of cells maintained in the heavy media is no different from that in normal media. All peptides containing the heavy amino acids are heavier than their normal counterparts. The cells from each of the two populations of cells are lysed. The lysates from each of the two cell populations are then combined. The combined cell lysates are then analyzed by mass spectrometry. Pairs of chemically identical peptides of different stable isotope composition can be differentiated in a mass spectrometer due to their difference in mass. The ratio of peak intensities in the mass spectrum for such peptide pairs reflects the abundance ratio for the two proteins.
This example describes SILAC studies that were performed to compare the effects of three different HDAC inhibitors (Compound A, Compound B, and tubastatin A) to a control on a human multiple myeloma cell line. The HDAC inhibitors were also compared amongst themselves to determine differences in their effects.
A human myeloma cell line MM.1S was grown using either ^12C (light) or ^13C (heavy) lysine containing culture medium. The “heavy” cells were treated with DMSO as the control, and the “light” cells were treated with a single HDAC inhibitor at 37° C. for 6 hours. The heavy and light cells were lysed, and the lysates were mixed in 1:1 ratio and digested with the protease trypsin. The acetylated lysine containing peptides (due to the action of the HDAC inhibitor) in the digested peptide pool were captured by a non-specific anti-acetylated lysine antibody cocktail (the antibodies identify both light and heavy acetylated peptides), and subjected to mass spectrometry analysis in order to identify thousands of individual peptides.
Thousands of peptides were identified in pairs (^12C and ^13C) due to their known mass differences. The amino acid sequence and quantitative ratio (Light/Heavy) of a given peptide in two differentially treated cell lysates were then determined and annotated with their possible protein (gene) sources.
As stated above, three HDAC inhibitors (Compound A, Compound B, and Tubastatin A) were used. Thus, the SILAC method was performed three times, with a different HDAC inhibitor compared to a control each time. Accordingly, there are three pairs of quantitative data in the table below, i.e., Compound A:DMSO, Compound B:DMSO, and Tubastatin A:DMSO. A cut-off of 1.30 fold of change (increase or decrease) was then used to determine “changed” or “+” in the table, and any peptides with a fold of change less than 1.3 fold were determined to be “unchanged” or “0” in the table. Those peptides that were not identified were marked as “NA” in the table. […]

Q: With O=C(NO)c1cnc(NC2(c3cccc(F)c3)CCCCC2)nc1 [Compound B, 2-((1-(3-fluorophenyl)cyclohexyl)amino)-N-hydroxypyrimidine-5-carboxamide] as the molecule, how does the “L/H ratio of acetylated peptide” value (LCMLYHPDK(ac)HRDPELK (SEQ ID NO: 389), Isoform 3 of DnaJ homolog subfamily C member 11 [45], DNAJC11) read?
A: −0.69 log 2

Q: And the “L/H ratio of acetylated peptide” value (LHSNYYK(ac)HK (SEQ ID NO: 371), Uncharacterized protein C6orf125 [69], C6orf125)?
A: 0.52 log 2

Q: What about the “L/H ratio of acetylated peptide” value (LHYK(ac)HESWLLHR (SEQ ID NO: 385), Deoxycytidine kinase [211], DCK) of the same molecule?
A: −0.43 log 2

Q: What about the “light to heavy ratio (L/H ratio) of acetylated peptide, log 2 scale” value (LIK(ac)VHLDK (SEQ ID NO: 215), 40S ribosomal protein S7 [155], RPS7) of the same molecule?
A: 0.00

Q: And the “L/H ratio of acetylated peptide” value (LK(ac)ADVFK (SEQ ID NO: 375), Isoform 1 of Chromodomain-helicase-DNA-binding protein 4 [959], CHD4)?
A: −0.45 log 2

Q: And the “L/H ratio of acetylated peptide” value (LK(ac)AEKYR (SEQ ID NO: 414), Isoform 1 of Leucine-rich repeat and IQ domain-containing protein 3 [557], LRRIQ3)?
A: −1.00 log 2

Q: What about the “L/H ratio of acetylated peptide LYK(ac)[…] (SEQ ID NO: 4)” value (LMNB1 [261], log 2 scale, drug vs DMSO) of the same molecule?
A: 0.48

Q: And the “L/H ratio of acetylated peptide […](ac)LENAR (SEQ ID NO: 58)” value (LMNB1 [271], log 2 scale, drug vs DMSO)?
A: 0.00

Q: What about the “light to heavy ratio (L/H ratio) of acetylated peptide, log 2 scale” value (LNEQK(ac)LAQLEEAK (SEQ ID NO: 133), ATP synthase subunit b mitochondrial [131], ATP5F1) of the same molecule?
A: 0.00

Q: And the “L/H ratio of acetylated peptide” value (LNPK(ac)[…] (SEQ ID NO: 448), Serine hydroxymethyltransferase mitochondrial [200], SHMT2)?
A: −0.41 log 2

Q: And the “L/H ratio of acetylated peptide GFGYK(ac)GSCFHR (SEQ ID NO: 59)” value (LOC390956 [71], log 2 scale, drug vs DMSO)?
A: 0.00

Q: What about the “light to heavy ratio (L/H ratio) of acetylated peptide, log 2 scale” value (LSLDK(ac)VFR (SEQ ID NO: 226), Stomatin-like protein 2 [145], STOML2) of the same molecule?
A: 0.00

Q: What about the “light to heavy ratio (L/H ratio) of acetylated peptide, log 2 scale” value (LTEAKPVDK(ac)VK (SEQ ID NO: 221), cDNA FLJ60124 highly similar to Mitochondrial dicarboxylate carrier [142], SLC25A10) of the same molecule?
A: 0.00

Q: What about the “L/H ratio of acetylated peptide” value (LVQTAELTK(ac)VFEIR (SEQ ID NO: 398), Glia maturation factor gamma [119], GMFG) of the same molecule?
A: −0.80 log 2

Q: And the “light to heavy ratio (L/H ratio) of acetylated peptide, log 2 scale” value (LYATMEK(ac)HK (SEQ ID NO: 251), Histone acetyltransferase p300 [1590], EP300)?
A: 0.00

Q: What about the “light to heavy ratio (L/H ratio) of acetylated peptide AVLK(ac)[…] (SEQ ID NO: 262)” value (Laminin receptor-like protein LAMRL5 [89], SNORA6, RPSAP15, SNORA62, RPSA, drug:DMSO) of the same molecule?
A: 0.00 log 2

Q: What about the “light to heavy ratio (L/H ratio) of acetylated peptide SYVSEK(ac)DVTSAK (SEQ ID NO: 628)” value (Leucine-rich PPR motif-containing protein mitochondrial [1332], gene LRPPRC, inhibitor:DMSO) of the same molecule?
A: 0.00 log 2

Q: What about the “L/H ratio of acetylated peptide ICCQFDFK(ac)R (SEQ ID NO: 60)” value (MAN2A1 [373], log 2 scale, drug vs DMSO) of the same molecule?
A: 0.00

Q: And the “L/H ratio of acetylated peptide YLTNQK(ac)NSNSK(ac)NDR (SEQ ID NO: 17)” value (MEAF6 [69:74], log 2 scale, drug vs DMSO)?
A: 0.43

Q: And the “light to heavy ratio (L/H ratio) of acetylated peptide, log 2 scale” value (MKENQK(ac)[…] (SEQ ID NO: 169), Isoform 2 of Heat shock protein HSP 90-alpha [611], HSP90AA1)?
A: 0.00

Q: And the “L/H ratio of acetylated peptide” value (MLEK(ac)DVCEK (SEQ ID NO: 446), Isoform 1 of Protein RUFY3 [382], RUFY3)?
A: 0.62 log 2

Q: And the “L/H ratio of acetylated peptide” value (MLK(ac)QMLFR (SEQ ID NO: 433), Proteasome subunit beta type-7 [127], PSMB7)?
A: −0.47 log 2

Q: What about the “L/H ratio of acetylated peptide TLVLSDK(ac)HSPQK(ac)K (SEQ ID NO: 5)” value (MLL3 [2809:2814], log 2 scale, drug vs DMSO) of the same molecule?
A: 0.38

Q: What about the “L/H ratio of acetylated peptide LNK(ac)DQWEER (SEQ ID NO: 10)” value (MSN [165], log 2 scale, drug vs DMSO) of the same molecule?
A: 0.71

Q: And the “light to heavy ratio (L/H ratio) of acetylated peptide VHLSQK(ac)YK (SEQ ID NO: 343)” value (Matrin-3 [473], MATR3, SNHG4, drug:DMSO)?
A: 0.40 log 2

Q: And the “light to heavy ratio (L/H ratio) of acetylated peptide FLNK(ac)LAEER (SEQ ID NO: 342)” value (Matrin-3 [836], MATR3, SNHG4, drug:DMSO)?
A: −0.44 log 2

Q: And the “light to heavy ratio (L/H ratio) of acetylated peptide MTDK(ac)CFR (SEQ ID NO: 573)” value (Mitochondrial import inner membrane translocase subunit Tim13 [45], gene TIMM13, inhibitor:DMSO)?
A: 0.00 log 2

Q: And the “light to heavy ratio (L/H ratio), log 2 scale, acetylated peptide YVK(ac)ALFR (SEQ ID NO: 771)” value (Mitochondrial import receptor subunit TOM70 [188], gene TOMM70A, drug:DMSO)?
A: 0.00

Q: What about the “light to heavy ratio (L/H ratio) of acetylated peptide LSLLSK(ac)FR (SEQ ID NO: 564)” value (Mitochondrial trifunctional protein beta subunit (Fragment) [100], gene HADHB, inhibitor:DMSO) of the same molecule?
A: 0.00 log 2

Q: What about the “light to heavy ratio (L/H ratio) of acetylated peptide EIFQNEK(ac)R (SEQ ID NO: 288)” value (NAD(P) transhydrogenase mitochondrial [70], NNT, drug:DMSO) of the same molecule?
A: 0.00 log 2

Q: And the “light to heavy ratio (L/H ratio) of acetylated peptide AISPDK(ac)DNFYFDVK (SEQ ID NO: 284)” value (NAD(P) transhydrogenase mitochondrial [403], NNT, drug:DMSO)?
A: 0.00 log 2

Q: And the “light to heavy ratio (L/H ratio) of acetylated peptide, log 2 scale” value (NIDPK(ac)PCTPR (SEQ ID NO: 148), Isoform 1 of DAZ-associated protein 1 [83], DAZAP1)?
A: 0.00
